Results: article PMC6778101 (Nature Communications, 2019)
Like-named read-outs stand apart in the source and are kept apart here.

Tests used:
E. coli K-12 BW25113 = assay: microbe, parasite or virus in culture; type: cell-based, Escherichia coli
Excerpt: Unless otherwise indicated, Minimal Salt (MS) medium was used in all experiments, including the laboratory evolution experiments. In line with previous, methodologically relevant laboratory evolution studies, the physical conditions (including the medium) were the same during the course of laboratory evolution and all forthcoming assays on the resulting resistant lines (e.g. MIC measurements). We previously optimized this medium for studying AMPs (1 g L^−1 (NH4)2SO4, 3 g L^−1 KH2PO4 and 7 g L^−1 K2HPO4 supplemented with 0.1 mM MgSO4, 0.54 µg mL^−1 FeCl3, 1 µg mL^−1 thiamine hydrochloride, 0.2% Casamino acids and 0.2% glucose)[19]. This medium is highly controlled and provides a reproducible environment for experimental evolution experiments. All components were obtained from Sigma-Aldrich.
(§1) MICs were determined using a standard serial broth dilution technique. Briefly, 11-step serial dilutions were prepared in 96-well microtiter plates with three replicates per strain and antimicrobial compound. Each experiment was repeated at least twice. 5 × 10^5 cells/mL were inoculated into each well, and the plates were incubated at 30 °C in case of E. coli K-12 BW25113, and its antibiotic and AMP-adapted lines, or 37 °C in case of the other bacterial species. […] Cell growth was monitored by measuring the optical density (OD600 value, Biotek Synergy 2 microplate reader was used for this purpose). […] Relative MIC was calculated as follows: MICrelative = MICevolved/MICcontrol.

[1] = test system: E. coli K-12 BW25113 bearing the metagenomic plasmid library; assay: Functional metagenomic screen of a soil library, gradient plate selection; type: cell-based, Escherichia coli; conditions: soil metagenomic library, 1.5–5 kb fragments, gradient plate, 30 °C, 24 h
[2] = test system: E. coli K-12 BW25113 carrying ASKA plasmids; assay: microbe, parasite or virus in culture; type: cell-based, Escherichia coli; conditions: for MIC: Escherichia coli; for MIC / MIC value of E. coli K-12 BW25113 carrying the empty plasmid of the ASKA library / MIC value of E. coli K-12 BW25113 carrying the pooled plasmids of the ASKA library: MS medium + 10 µg mL−1 CHL + 500 µM IPTG, 5 × 10^5 cells, 16–18 h, 37 °C
Excerpt: Bacterial gene amplification generates extensive genetic variation that can provide drug resistance[37],[38]. As gene amplification events tend to be genetically unstable and reduce bacterial fitness, they are transient in nature. Using the ASKA library, which comprises each E. coli ORF cloned into an expression vector[40], we have conducted a global survey to evaluate whether artificially amplified genes provide resistance to any of the 14 AMPs and 11 antibiotics tested. As chloramphenicol (CHL) was used as a selection marker for the ASKA plasmid, this antibiotic was not tested in this screen. E. coli K-12 BW25113 cells were transformed with the pooled plasmids of the ASKA library, and the genetically mixed populations were exposed to increasing levels of AMP or antibiotic stresses, respectively. In all cases, the employed AMP or antibiotic dosages were above the MIC of the wild type. For each drug, we identified the MIC provided in the pooled ASKA plasmid library, and compared it to the MIC of the wild-type strain carrying the empty ASKA plasmid.
The ASKA library (a complete set of E. coli K-12 ORF archive) includes every E. coli ORF cloned into an expression vector (pCA24N)[65]. Prior to screening, the ASKA plasmid collection was pooled and transformed into E. coli K-12 BW25113 strain[66]. The plasmid pool was created by pooling an equal aliquot of cells, each carrying different members of the ASKA library, followed by plasmid miniprep. Next, the plasmid pool was electroporated into E. coli K-12 BW25113 competent cells. […] For the MICs measurements 500 000 cells were inoculated in each well which represents ~100 times coverage of each library member. […] Prior to the measurements the cell population containing the pooled overexpression library or the control strain containing the empty vector were grown in three replicates in LB medium supplemented with 20 µg/mL CHL. As the culture reached high density (i.e., OD600 > 0.8), expression of the plasmid was induced by 50 µM IPTG for 1 h. Following induction, 5 × 10^5 bacterial cells were inoculated in three replicates into each well of the 96-well plate and incubated for 16–18 h at 37 °C. Following incubation the MIC values were determined by measuring optical densities in a plate reader (Biotek Synergy).

[3] = test system: E. coli K-12 BW25113 carrying single mutations; assay: MIC change in single-mutation strains (basS L194R, mlaD a342del, waaY M1†); type: cell-based, Escherichia coli; conditions: mutations inserted individually into E. coli K-12 BW25113
E. coli ATCC 25922 = type: cell-based, Escherichia coli; conditions: starting strain; broth dilution, MS medium, 37 °C, 18 h
Method: (§2) Unless otherwise indicated, we used E. coli K-12 BW25113 in all high-throughput experiments. To investigate the impact of mutation rate on evolution of AMP resistance, we initiated laboratory evolution with a mutator strain E. coli mutD5 that carries mutations in the dnaQ gene (L73W and A164V).
(§3) MICs were determined using a standard serial broth dilution technique. Briefly, 11-step serial dilutions were prepared in 96-well microtiter plates with three replicates per strain and antimicrobial compound. Each experiment was repeated at least twice. 5 × 10^5 cells/mL were inoculated into each well, and the plates were incubated at 30 °C in case of E. coli K-12 BW25113, and its antibiotic and AMP-adapted lines, or 37 °C in case of the other bacterial species. Plates were shaken at 300 r.p.m. during incubation for 24 and 18 h, respectively. Cell growth was monitored by measuring the optical density (OD600 value, Biotek Synergy 2 microplate reader was used for this purpose). […] Relative MIC was calculated as follows: MICrelative = MICevolved/MICcontrol.

S. enterica LT2 = type: cell-based, Salmonella enterica subsp. enterica serovar Typhimurium; conditions: starting strain; broth dilution, MS medium, 37 °C, 18 h
Method: as §2, §3

K. pneumoniae ATCC 10031 = type: cell-based, Klebsiella pneumoniae; conditions: starting strain; broth dilution, MS medium, 37 °C, 18 h
Method: as §2, §3

A. baumannii ATCC 17978 = type: cell-based, Acinetobacter baumannii; conditions: starting strain; broth dilution, MS medium, 37 °C, 18 h
Method: as §2, §3

[4] = test system: E. coli ATCC 25922, S. enterica LT2, K. pneumoniae ATCC 10031, A. baumannii ATCC 17978; assay: Laboratory evolution in pathogenic bacteria, statements for all four pathogens together; type: cell-based
Excerpt: The tested pathogens initially sensitive to the AMPs and the antibiotics included Escherichia coli (ATCC® 25922™) (abbreviated as E. coli ATCC 25922), Salmonella enterica subsp. enterica serovar Typhimurium LT2 (abbreviated as S. enterica LT2), Klebsiella pneumoniae subsp. pneumoniae (Schroeter) Trevisan (ATCC® 10031™) (abbreviated as K. pneumoniae ATCC 10031) and Acinetobacter baumannii Bouvet and Grimont (ATCC® 17978™) (abbreviated as A. baumannii ATCC 17978).
The evolutionary protocol was designed to avoid population extinction and to ensure that populations with the highest level of resistance were propagated further. Starting with a subinhibitory drug concentration (Supplementary Data 8), resulting in ~50% growth inhibition, 10 parallel populations per drug were allowed to grow in Minimal Salts medium for 72 h and 300 r.p.m. E. coli K-12 BW25113 and E. coli mutD5 populations were incubated at 30 °C, while E. coli ATCC 25922, S. enterica LT2, K. pneumonia ATCC 10031, and A. baumannii ATCC 17978 were incubated at 37 °C. […] Prior to each transfer, cell growth was monitored by measuring the optical density at 600 nm (OD600 value, Biotek Synergy 2 microplate reader). Only populations with the highest drug concentration (and reaching OD600 > 0.2) were selected for further evolution. A chess-board layout was used on the plate to monitor potential cross-contamination events. […] E. coli mutD5 was adapted to TPII, also in 10 parallel evolving populations.
as §1, with “twice.” for “twice. 5 × 10^5 cells/mL were inoculated into each well, and the plates were incubated at 30 °C in case of E. coli K-12 BW25113, and its antibiotic and AMP-adapted lines, or 37 °C in case of the other bacterial species.”

E.coli K-12 BW25113 = type: cell-based, Escherichia coli; conditions: for MIC (freshly prepared AMP): plates inoculated immediately; for MIC (pre-incubated AMP): plates pre-incubated 72 hours before inoculation
Method: as §3
Supplementary Table 7- Effect of incubation time on the minimum inhibitory concentration (MIC) of AMPs. We tested whether the prolonged incubation time can affect the MIC of AMPs. To test this, two sets of AMP containing MIC plates were prepared in parallel. The first set was immediately inoculated with E.coli K-12 BW25113, while the second set was pre-incubated 72 hours before inoculation with the […]
observed in the MIC between freshly prepared and pre-incubated plates. […]

[5] = Escherichia coli, BW25113, 24 h, read-out: MIC
[6] = BW25113, Replicate 1, read-out: MIC value of E. coli K-12 BW25113 carrying the empty plasmid of the ASKA library
[7] = BW25113, Replicate 1, read-out: MIC value of E. coli K-12 BW25113 carrying the pooled plasmids of the ASKA library
[8] = BW25113, Replicate 2, read-out: MIC value of E. coli K-12 BW25113 carrying the empty plasmid of the ASKA library
[9] = BW25113, Replicate 2, read-out: MIC value of E. coli K-12 BW25113 carrying the pooled plasmids of the ASKA library
[10] = BW25113, Replicate 3, read-out: MIC value of E. coli K-12 BW25113 carrying the empty plasmid of the ASKA library
[11] = BW25113, Replicate 3, read-out: MIC value of E. coli K-12 BW25113 carrying the pooled plasmids of the ASKA library
[12] = starting wild-type strain of the evolution experiment, broth dilution, MS medium, 5 × 10^5 cells/mL, 30 °C, 24 h, MIC = OD600 < 0.05
[13] = time allowed for bacterial growth 24 hours
[14] = time allowed for bacterial growth 48 hours
[15] = time allowed for bacterial growth 72 hours

Compound	MIC (E. coli K-12 BW25113; [5]) [µg/mL]	Number of resistant contig [1]	MIC [2, 6] [µg/mL]	MIC [2, 7] [µg/mL]	MIC [2, 8] [µg/mL]	MIC [2, 9] [µg/mL]	MIC [2, 10] [µg/mL]	MIC [2, 11] [µg/mL]	MIC (E. coli K-12 BW25113; [12]) [µg/mL]	MIC value of E. coli K-12 BW25113 carrying the empty plasmid of the ASKA library ([2]; Replicate 1) [µg/mL]	MIC value of E. coli K-12 BW25113 carrying the pooled plasmids of the ASKA library ([2]; Replicate 1) [µg/mL]	MIC value of E. coli K-12 BW25113 carrying the empty plasmid of the ASKA library ([2]; Replicate 2) [µg/mL]	MIC value of E. coli K-12 BW25113 carrying the pooled plasmids of the ASKA library ([2]; Replicate 2) [µg/mL]	MIC value of E. coli K-12 BW25113 carrying the empty plasmid of the ASKA library ([2]; Replicate 3) [µg/mL]	MIC value of E. coli K-12 BW25113 carrying the pooled plasmids of the ASKA library ([2]; Replicate 3) [µg/mL]	further results
O=C(N[C@H](CO)[C@H](O)c1ccc([N+](=O)[O-])cc1)C(Cl)Cl [CHL, Chloramphenicol]	6.9	7	–	–	–	–	–	–	–	–	–	–	–	–	–	–
NC[C@H]1O[C@H](O[C@H]2[C@H](O)[C@@H](O[C@H]3O[C@H](CO)[C@@H](O)[C@H](N)[C@H]3O)[C@H](N)C[C@@H]2N)[C@H](N)C[C@@H]1O [TOB, Tobramycin]	3.4	13	1.49	2.15	1.24	2.58	1.49	2.58	–	–	–	–	–	–	–	–
COc1cc(Cc2cnc(N)nc2N)cc(OC)c1OC [TRM, Trimethoprim]	–	11	2	128	2	64	2	64	–	–	–	–	–	–	–	MIC (E. coli K-12 BW25113; Escherichia coli, BW25113, 24 h): 5.2 µg/mL; increment in resistance level by the pooled ASKA library [2]: 32 fold
GIINTLQKYYRVRGGRAVLSLPKEEQIGKSTRGRKRRKK [HBD3, Human beta-defensin-3, clinically relevant antimicrobial peptide with human origin]	–	–	–	–	–	–	–	–	1500	195.36	405.09	195.36	337.58	281.31	281.31	resistance conferred by single mutations basS L194R, mlaD a342del, waaY M1† (in words) [3]: conferred resistance
KTKKKFLKKT [PXB, Polymyxin B, AMP used as a last-resort drug in the treatment of multidrug-resistant Gram-negative bacterial infections; from Sigma-Aldrich]	–	–	–	–	–	–	–	–	2.5	3.18	3.18	3.18	3.18	3.18	3.18	MIC (E. coli ATCC 25922): 6 µg/mL; MIC (S. enterica LT2): 8 µg/mL; MIC (K. pneumoniae ATCC 10031): 2 µg/mL; MIC (A. baumannii ATCC 17978): 2 µg/mL; resistance after laboratory evolution in pathogens (in words) ([4]; all four pathogenic species): a high level of PXB-resistance has emerged in all pathogens studied; increment of resistance level compared to the corresponding wild-type strain ([4]; certain lines, highest value over the four pathogens): ≤ 20,000 times; MIC (freshly prepared AMP) (E.coli K-12 BW25113; [13]): 4.2 µg/mL; MIC (freshly prepared AMP) (E.coli K-12 BW25113; [14]): 4.2 µg/mL; MIC (freshly prepared AMP) (E.coli K-12 BW25113; [15]): 4.2 µg/mL; MIC (pre-incubated AMP) (E.coli K-12 BW25113; [13]): 5 µg/mL; MIC (pre-incubated AMP) (E.coli K-12 BW25113; [14]): 5 µg/mL; MIC (pre-incubated AMP) (E.coli K-12 BW25113; [15]): 5 µg/mL
